{
  "source": "patent US6297241A",
  "about": "“Carbamate derivatives of diaryl 1,3,4-oxadiazolone” (Bristol-Myers Squibb Company, priority 2000, dated 2001)",
  "key": {"[1]": {"tested_on": "cortical infarct volume", "assay": "Focal stroke model: permanent left MCA and CCA occlusion, temporary right CCA occlusion", "assay_type": "in vivo", "settings": "Wistar rat; 10 μg/kg i.v. single bolus two hours after MCA occlusion; measured 24 hours after MCAO", "experimental": "To determine the ability of the compounds of the present invention to reduce cell loss resulting from neuronal ischemia, a standard focal cerebral ischemia is induced by permanent occlusion of the left middle cerebral artery (MCA) and common carotid artery (CCA) with one hour occlusion of the right CCA in the Wistar rat. The surgeries are performed using the sub-temporal approach of A. Tamura, et al., J. Cereb. Blood Flow Metab., 1, pp. 53-60, (1981) and its modifications [K. Osborne, et al., J. Neurol Neurosurg. Psychiatry, 50, pp. 402-410 (1987) and S. Menzies, et al., Neurosurgery, 31, pp.100-107, (1992).]\nThe compound of Example 1 was evaluated in the focal stroke model involving permanent occlusion of the left MCA (MCAO) and CCA (CCAO) and temporary occlusion of the right CCA in the Wistar rat. This procedure results in a reliably large neocortical infarct volume that is measured by means of vital dye exclusion in serial slices through the brain 24 hours after MCAO. In the present test, compounds were administered using an i.v. or i.p. route of administration two hours after occlusion."}, "[2]": {"tested_on": "cloned mammalian (mSlo or hSlo) BK channels", "assay": "Increase of cloned BK-mediated outward current in Xenopus oocytes, two-electrode voltage clamp", "assay_type": "cell-based", "settings": "1 μM; at least 5 oocytes; mSlo or hSlo expressed in Xenopus oocytes"}, "[3]": {"tested_on": "non-BK native currents in the oocytes", "assay": "Effect on non-BK native currents (current remaining with IBTX) in oocytes", "settings": "at the tested concentration; IBTX 50 nM"}, "[4]": {"assay": "Rapid screen of prodrug hydrolysis and drug release in plasma (HPLC)", "assay_type": "in vitro ADME", "settings": "fresh rat plasma, 37° C., 10 μg/mL, stock in PEG-400, analysis 5 minutes after incubation", "experimental": "A rapid screen to determine the ability of prodrugs to hydrolyze and release the drug (compound of Example 1) is conducted as follows. A 1 mg/mL stock solution of the prodrug is prepared in distilled water or acetonitrile or PEG-400. Plasma from freshly collected rat or human blood is used in this assay. To 1 mL of plasma at 37° C. was added 10 μL of stock solution of prodrug and mixed gently. Immediately after the mixing, 100 μL of plasma was removed and quenched with 300 μL of acetonitrile (Zero time sample). Samples were also obtained at 30 minutes and quenched immediately. The quenched samples were centrifuged to obtain a clear supernatant for analysis. The stock solution, T=0 and T=30 samples were analyzed by a HPLC assay that separates the drug from the prodrug. Based on the relative peak areas of prodrug and drug in these samples, different prodrugs are characterized as fast, moderate and slow release agents. For example, in this model, the compound of Example 2 was dissolved in PEG-400 at a concentration of 1 mg/mL and incubated at 10 μg/mL in fresh rat plasma at 37° C."}},
  "data": [
    {"smiles": "O=c1oc(-c2ccc(C(F)(F)F)cc2)nn1Cc1cc(Cl)ccc1O", "note": "[Example 1]", "values": [
      {"measurement": "Reduction of cortical infarct volume vs vehicle-treated (water) control", "setting": "[1]", "value": "about 18%"},
      {"measurement": "BK current as % of control of IBTX-sensitive current", "setting": "[2]", "value": 126, "unit": "%"},
      {"measurement": "Effect on non-BK native currents in the oocytes", "setting": "[3]", "value": "did not effect non-BK native currents"}
    ]},
    {"smiles": "O=C(O)CC(NC(=O)Oc1ccc(Cl)cc1Cn1nc(-c2ccc(C(F)(F)F)cc2)oc1=O)C(=O)O", "note": "(stereo not shown) [Example 2, N-[[4-Chloro-2-[[5-[4-(trifluoromethyl)phenyl]-2. 3-dihydro-2-oxo-1,3,4-oxadiazol-3-yl]methyl]phenoxy]carbonyl]aspartic acid]", "values": [
      {"measurement": "Conversion of prodrug to the drug (compound of Example 1) in plasma", "setting": "[4]", "value": "conversion of the compound of Example 2 to the compound of Example 1"}
    ]}
  ]
}
